Measurements reported in paper PMC12751338, “Biochemical and functional characterization of orf virus decapping protein OV71” (Virology Journal, 2025).

Assays:
[1] = molecular target: T1, OV71 (ORFV071; his-OV71) (Orf virus strain SA00, UniProt Q6TVP9); assay: competition in decapping of radiolabeled capped RNA, TLC; format: biochemical; details: 206-nt cap-labeled RNA substrate; 4 pmol enzyme; 2 mM MgCl2, 0.5 mM MnCl2, pH 7.5, 37 °C; added product as competitor
T1 construct: His-tagged, pET24a (NdeI/XhoI), E. coli BL21(DE3), Talon cobalt resin; approx. 25 kDa

[2] = tested on: his-OV71 (Orf virus (Taiping strain)); assay: competition; details: EMSA: 20 mM HEPES, 10 mM EDTA, 1 M KCl, 1 mM DTT, 80 ug/mL BSA, 50% glycerol (so in the source), on ice 15 min, 0.05 pmol RNA. Pulldown: 100 mM K acetate

Molecule | relative decapping ratio [1] | IC50 [2] [pmol]
C[n+]1cn([C@@H]2O[C@H](COP(=O)(O)OP(=O)(O)O)[C@@H](O)[C@H]2O)c2nc(N)[nH]c(=O)c21 [m^7GDP] | decapping product m^7GDP modestly inhibited the decapping (Fig. 3D and E), indicating weak affinity | 
206 nt uncapped RNA competitor |  | 40
